Measured values reported in ChEMBL document CHEMBL3046918, “Conventional and microwave-assisted synthesis of imidazole and guanidine derivatives and their biological evaluation” (2011).
Where a name gives a salt, the structure may show the parent alone.

Columns and labels:
Assay type in all cases: functional
SF-295 = experiment: Growth inhibition of Homo sapiens (human) SF295 cells at 10^-5 M after 48 hr by SRB assay; details: SF-295, 48 h, read-out: GI
Rattus norvegicus = experiment: Anti-inflammatory activity in Rattus norvegicus Charles Foster albino (rat) assessed as inhibition of carrageenan-induced paw edema at 50 mg/kg, po administered 30 min prior to carrageenan-challenge measured up to 3 hr relative to control; parameters: scale not given: the % may be the effect or the level left
HOP-62 = experiment: Growth inhibition of Homo sapiens (human) HOP62 cells at 10^-5 M after 48 hr by SRB assay; details: HOP-62, 48 h, read-out: GI
PC-3 = experiment: Growth inhibition of Homo sapiens (human) PC3 cells at 10^-5 M after 48 hr by SRB assay; details: PC-3, 48 h, read-out: GI
A549 = experiment: Growth inhibition of Homo sapiens (human) A549 cells at 10^-5 M after 48 hr by SRB assay; details: A549, 48 h, read-out: GI
MCF7 = experiment: Growth inhibition of Homo sapiens (human) MCF7 cells at 10^-5 M after 48 hr by SRB assay; details: MCF7, 48 h, read-out: GI
IGROV-1 = experiment: Growth inhibition of Homo sapiens (human) IGROV1 cells at 10^-5 M after 48 hr by SRB assay; details: IGROV-1, 48 h, read-out: GI

SMILES | inhibition of growth at 10 µM (SF-295) [%] | Activity (Rattus norvegicus) [%] | inhibition of growth at 10 µM (HOP-62) [%] | inhibition of growth at 10 µM (PC-3) [%] | inhibition of growth at 10 µM (A549) [%] | inhibition of growth at 10 µM (MCF7) [%] | inhibition of growth at 10 µM (IGROV-1) [%]
O=C1c2ccccc2C(=O)c2c1ccc1nc(-c3cccc4ccccc34)[nH]c21 | 81 | 14 | 61 | 71 | 93 | 76 | 71
Cc1ccsc1-c1nc2ccc3c(c2[nH]1)C(=O)c1ccccc1C3=O | 30 | 16 | 19 | 16 | 15 | 36 | 6
Cc1ccc(-c2nc3ccc4c(c3[nH]2)C(=O)c2ccccc2C4=O)s1 | 43 | 26 | 6 | 14 | 35 | 47 | 8
Cn1cccc1-c1nc2ccc3c(c2[nH]1)C(=O)c1ccccc1C3=O | 52 | 34 | 11 | 28 | 31 | 72 | 27
O=C1c2ccccc2C(=O)c2c1ccc1nc(-c3ccc4ccccc4c3)[nH]c21 | 34 | 35 | 9 | 15 | 2 | 26 | 9
O=C1c2ccccc2C(=O)c2c1ccc1nc(-c3c(O)ccc4ccccc34)[nH]c21 | 92 | 22 | 78 | 87 | 97 | 61 | 82
Cc1ccsc1-c1nc2cc3nc4ccccc4nc3cc2[nH]1 | 28 | 38 | 4 | 12 | 27 | 17 | 30
Cc1ccc(-c2nc3cc4nc5ccccc5nc4cc3[nH]2)s1 | 32 | 10 | 20 | 29 | 53 | 56 | 18
Cn1cccc1-c1nc2cc3nc4ccccc4nc3cc2[nH]1 | 40 | 14 | 12 | 43 | 36 | 41 | 26
c1ccc2c(-c3nc4cc5nc6ccccc6nc5cc4[nH]3)cccc2c1 | 100 | 19 | 98 | 97 | 97 | 88 | 92
c1ccc2cc(-c3nc4cc5nc6ccccc6nc5cc4[nH]3)ccc2c1 | 20 | 28 | 9 | 22 | 26 | 29 | 19
Oc1ccc2ccccc2c1-c1nc2cc3nc4ccccc4nc3cc2[nH]1 | 97 | 30 | 90 | 81 | 87 | 84 | 84
Cc1ccsc1/C=N\C(=N)Nc1nc2ccccc2[nH]1 | 40 | 38 | 13 | 10 | 3 | 9 | 17
Cc1ccc(/C=N\C(=N)Nc2nc3ccccc3[nH]2)s1 | 36 | 24 | 14 | 8 | 13 | 0 | 20
Cn1cccc1/C=N/C(=N)Nc1nc2ccccc2[nH]1 | 40 | 0 | 28 | 1 | 12 | 24 | 23
N=C(/N=C/c1cccc2ccccc12)Nc1nc2ccccc2[nH]1 | 40 | 34 | 26 | 13 | 9 | 25 | 13
N=C(/N=C\c1ccc2ccccc2c1)Nc1nc2ccccc2[nH]1 | 42 | 26 | 18 | 10 | 8 | 6 | 26
N=C(/N=C/c1c(O)ccc2ccccc12)Nc1nc2ccccc2[nH]1 | 34 | 0 | 9 | 15 | 2 | 4 | 23
COc1cccc2c1C(=O)c1c(O)c3c(c(O)c1C2=O)C[C@@](O)(C(=O)CO)C[C@@H]3O[C@H]1C[C@H](N)[C@H](O)[C@H](C)O1 [DOXORUBICIN HYDROCHLORIDE] | 69 |  | 32 |  | 27 | 72 | 39
CO[C@@]12[C@H](COC(N)=O)C3=C(C(=O)C(C)=C(N)C3=O)N1C[C@@H]1N[C@@H]12 [MITOMYCIN] | 43 |  |  | 61 |  |  | 47
CC(=O)O[C@H]1C(=O)[C@@]2(C)[C@H]([C@H](OC(=O)c3ccccc3)[C@]3(O)C[C@H](OC(=O)[C@H](O)[C@@H](NC(=O)c4ccccc4)c4ccccc4)C(C)=C1C3(C)C)[C@]1(OC(C)=O)CO[C@@H]1C[C@@H]2O [PACLITAXEL] |  |  | 37 |  | 54 |  | 37
